US11292807B2 (OCEANS LTD., priority 2015, dated 2022)
Read-outs that look alike come from different tables or passages of the source.

Assays:
MDA-MB [1] = details: MDA-MB
MDA-MB [2] = assay: cells; details: Homo sapiens, read-out: Average cell viability, MDA-MB
PC3 = assay: CIMA assay, cell viability, PC3; details: for Fold change in viability AVG: PC3
[3] = system: U373 (glioblastoma-astrocytoma); assay: CIMA assay, cell viability, U373; details: for Fold change in viability AVG: U373
[4] = system: SKOV3 (ovarian adenocarcinoma); assay: CIMA assay, cell viability, SKOV3; details: for Fold change in viability AVG: SKOV
[5] = system: THP-1 (acute monocytic leukemia); assay: CIMA assay, cell viability, THP-1; details: for Fold change in viability AVG: THP-1
[6] = CIMA assay, cell viability, CCD1079SK; details: human, Average cell viability, CCD
[7] = system: CCD1079SK (fibroblast, noncancerous but proliferating); assay: CIMA assay, cell viability, CCD1079SK; details: CCD
A549 (lung carcinoma) = assay: CIMA assay (colorimetric indicator of metabolic activity), cell viability, A549; details: for Fold change in viability AVG: A549
Method: Stock solutions of the extracts were prepared in dimethylsulfoxide (DMSO) at 10 mg/mL and stored in 200 μl aliquots at −20° C. until analysis. This preparation ensured that the DMSO delivered to cells in culture never exceeded 1%.
Prepared extracts were assessed following chronic exposure conditions in which cells were seeded at 2×10^3 cells/well (96 well-plate) and incubated with test compounds for 72 h. Each compound was evaluated over a range of concentrations (0, 10, 25, 50 or 100 μg/ml). Cell proliferation was initially assessed using a standard colorimetric indicator of metabolic activity (CIMA) assay. In this assay, tetrazole reduction was evaluated as a measure of metabolic function that evaluates mitochondrial activity to determine the extent of cell proliferation within a culture. This assay is based on the reduction of yellow tetrazolium salt to purple formazan by mitochondrial reductases enzyme in viable cells, resulting in a color changed that confers a change in absorbance.

**Q.** For `CC/C=C\C/C=C\C/C=C\C/C=C\C/C=C\CCCC(=O)OCC(O)COC1OC(CO)C(O)C(O)C1O` (stereo not shown) [Compound 13, lyso-MGDG C20:5], which “MDA-MB AVG” value (MDA-MB [1]; sample at 1 ug/mL) is on record?
**A.** 1.11

**Q.** And the “MDA-MB AVG” value (MDA-MB [1]; sample at 10 ug/mL)?
**A.** 1.14

**Q.** What about the “MDA-MB AVG” value (MDA-MB [1]; sample at 50 ug/mL) of the same compound?
**A.** 0.33

**Q.** What about the “MDA-MB AVG” value (MDA-MB [1]; sample at 100 ug/mL) of the same compound?
**A.** 0.28

**Q.** What about the “Fold change in viability AVG” value (MDA-MB [1]; 1 ug/mL) of the same compound?
**A.** 1.11

**Q.** And the “Fold change in viability AVG” value (MDA-MB [1]; 10 ug/mL)?
**A.** 1.14

**Q.** What about the “Fold change in viability AVG” value (MDA-MB [1]; 50 ug/mL) of the same compound?
**A.** 0.33

**Q.** What about the “Fold change in viability AVG” value (MDA-MB [1]; 100 ug/mL) of the same compound?
**A.** 0.28

**Q.** And the viability at 1 µg/mL (MDA-MB [2]; 1 ug/mL)?
**A.** 102%

**Q.** And the viability at 10 µg/mL (MDA-MB [2]; 10 ug/mL)?
**A.** 105%

**Q.** And the viability at 50 µg/mL (MDA-MB [2]; 50 ug/mL)?
**A.** 30%

**Q.** And the viability at 100 µg/mL (MDA-MB [2]; 100 ug/mL)?
**A.** 25%

**Q.** And the viability at 1 µg/mL (PC3; Homo sapiens, PC-3, read-out: Average cell viability, PC3, 1 ug/mL)?
**A.** 104%

**Q.** What about the viability at 10 µg/mL (PC3; Homo sapiens, PC-3, read-out: Average cell viability, PC3, 10 ug/mL) of the same compound?
**A.** 97%

**Q.** And the viability at 50 µg/mL (PC3; Homo sapiens, PC-3, read-out: Average cell viability, PC3, 50 ug/mL)?
**A.** 16%

**Q.** What about the viability at 100 µg/mL (PC3; Homo sapiens, PC-3, read-out: Average cell viability, PC3, 100 ug/mL) of the same compound?
**A.** 12%

**Q.** And the “PC3 AVG” value (PC3; PC3, sample at 1 ug/mL)?
**A.** 1.08

**Q.** And the “PC3 AVG” value (PC3; PC3, sample at 10 ug/mL)?
**A.** 1.01

**Q.** And the “PC3 AVG” value (PC3; PC3, sample at 50 ug/mL)?
**A.** 0.16

**Q.** What about the “PC3 AVG” value (PC3; PC3, sample at 100 ug/mL) of the same compound?
**A.** 0.12

**Q.** And the “Fold change in viability AVG” value (PC3; 1 ug/mL)?
**A.** 1.08

**Q.** What about the “Fold change in viability AVG” value (PC3; 10 ug/mL) of the same compound?
**A.** 1.01

**Q.** And the “Fold change in viability AVG” value (PC3; 50 ug/mL)?
**A.** 0.16

**Q.** What about the “Fold change in viability AVG” value (PC3; 100 ug/mL) of the same compound?
**A.** 0.12

**Q.** What about the viability at 1 µg/mL ([3]; Homo sapiens, U373 MG, read-out: Average cell viability, U373, 1 ug/mL) of the same compound?
**A.** 111%

**Q.** What about the viability at 10 µg/mL ([3]; Homo sapiens, U373 MG, read-out: Average cell viability, U373, 10 ug/mL) of the same compound?
**A.** 100%

**Q.** And the viability at 50 µg/mL ([3]; Homo sapiens, U373 MG, read-out: Average cell viability, U373, 50 ug/mL)?
**A.** 7%

**Q.** And the viability at 100 µg/mL ([3]; Homo sapiens, U373 MG, read-out: Average cell viability, U373, 100 ug/mL)?
**A.** 6%

**Q.** What about the “U373 AVG” value ([3]; U373, sample at 1 ug/mL) of the same compound?
**A.** 1.13

**Q.** And the “U373 AVG” value ([3]; U373, sample at 10 ug/mL)?
**A.** 1.02

**Q.** And the “U373 AVG” value ([3]; U373, sample at 50 ug/mL)?
**A.** 0.07

**Q.** And the “U373 AVG” value ([3]; U373, sample at 100 ug/mL)?
**A.** 0.06

**Q.** And the “Fold change in viability AVG” value ([3]; 1 ug/mL)?
**A.** 1.13

**Q.** And the “Fold change in viability AVG” value ([3]; 10 ug/mL)?
**A.** 1.02

**Q.** What about the “Fold change in viability AVG” value ([3]; 50 ug/mL) of the same compound?
**A.** 0.07

**Q.** And the “Fold change in viability AVG” value ([3]; 100 ug/mL)?
**A.** 0.06

**Q.** What about the viability at 1 µg/mL ([4]; Homo sapiens, SK-OV-3, read-out: Average cell viability, SKOV, 1 ug/mL) of the same compound?
**A.** 125%

**Q.** What about the viability at 10 µg/mL ([4]; Homo sapiens, SK-OV-3, read-out: Average cell viability, SKOV, 10 ug/mL) of the same compound?
**A.** 105%

**Q.** And the viability at 50 µg/mL ([4]; Homo sapiens, SK-OV-3, read-out: Average cell viability, SKOV, 50 ug/mL)?
**A.** 78%

**Q.** What about the viability at 100 µg/mL ([4]; Homo sapiens, SK-OV-3, read-out: Average cell viability, SKOV, 100 ug/mL) of the same compound?
**A.** 34%

**Q.** And the “Fold change in viability AVG” value ([4]; 1 ug/mL)?
**A.** 1.34

**Q.** And the “Fold change in viability AVG” value ([4]; 10 ug/mL)?
**A.** 1.13

**Q.** What about the “Fold change in viability AVG” value ([4]; 50 ug/mL) of the same compound?
**A.** 0.84

**Q.** What about the “Fold change in viability AVG” value ([4]; 100 ug/mL) of the same compound?
**A.** 0.37

**Q.** What about the viability at 1 µg/mL ([5]; Homo sapiens, THP-1, read-out: Average cell viability, THP-1, 1 ug/mL) of the same compound?
**A.** 104%

**Q.** And the viability at 10 µg/mL ([5]; Homo sapiens, THP-1, read-out: Average cell viability, THP-1, 10 ug/mL)?
**A.** 101%

**Q.** What about the viability at 50 µg/mL ([5]; Homo sapiens, THP-1, read-out: Average cell viability, THP-1, 50 ug/mL) of the same compound?
**A.** 40%

**Q.** What about the viability at 100 µg/mL ([5]; Homo sapiens, THP-1, read-out: Average cell viability, THP-1, 100 ug/mL) of the same compound?
**A.** 27%

**Q.** And the “THP-1 AVG” value ([5]; THP-1, sample at 1 ug/mL)?
**A.** 1.19

**Q.** What about the “THP-1 AVG” value ([5]; THP-1, sample at 10 ug/mL) of the same compound?
**A.** 1.14

**Q.** And the “THP-1 AVG” value ([5]; THP-1, sample at 50 ug/mL)?
**A.** 0.46

**Q.** What about the “THP-1 AVG” value ([5]; THP-1, sample at 100 ug/mL) of the same compound?
**A.** 0.31

**Q.** What about the “Fold change in viability AVG” value ([5]; 1 ug/mL) of the same compound?
**A.** 1.19

**Q.** And the “Fold change in viability AVG” value ([5]; 10 ug/mL)?
**A.** 1.14

**Q.** And the “Fold change in viability AVG” value ([5]; 50 ug/mL)?
**A.** 0.46

**Q.** And the “Fold change in viability AVG” value ([5]; 100 ug/mL)?
**A.** 0.31

**Q.** What about the viability at 72 h, 1 ug/mL ([6]; CCD1079SK fibroblast cells (noncancerous, proliferating), 1 ug/mL) of the same compound?
**A.** 103%

**Q.** What about the viability at 72 h, 10 ug/mL ([6]; CCD1079SK fibroblasts (noncancerous, proliferating), 10 ug/mL) of the same compound?
**A.** 99%

**Q.** And the viability at 72 h, 50 ug/mL ([6]; CCD1079SK fibroblasts (noncancerous, proliferating), 50 ug/mL)?
**A.** 22%

**Q.** What about the viability at 72 h, 100 ug/mL ([6]; CCD1079SK fibroblasts (noncancerous, proliferating), 100 ug/mL) of the same compound?
**A.** 14%

**Q.** What about the “Fold change in viability AVG” value ([7]; 1 ug/mL) of the same compound?
**A.** 1.13

**Q.** And the “Fold change in viability AVG” value ([7]; 10 ug/mL)?
**A.** 1.09

**Q.** What about the “Fold change in viability AVG” value ([7]; 50 ug/mL) of the same compound?
**A.** 0.24

**Q.** And the “Fold change in viability AVG” value ([7]; 100 ug/mL)?
**A.** 0.15

**Q.** And the “A549 AVG” value (A549 (lung carcinoma); A549, sample at 1 ug/mL)?
**A.** 0.67

**Q.** What about the “A549 AVG” value (A549 (lung carcinoma); A549, sample at 10 ug/mL) of the same compound?
**A.** 0.64

**Q.** And the “A549 AVG” value (A549 (lung carcinoma); A549, sample at 50 ug/mL)?
**A.** 0.67

**Q.** What about the “A549 AVG” value (A549 (lung carcinoma); A549, sample at 100 ug/mL) of the same compound?
**A.** 0.38

**Q.** What about the “Fold change in viability AVG” value (A549 (lung carcinoma); 1 ug/mL) of the same compound?
**A.** 0.67

**Q.** What about the “Fold change in viability AVG” value (A549 (lung carcinoma); 10 ug/mL) of the same compound?
**A.** 0.64

**Q.** And the “Fold change in viability AVG” value (A549 (lung carcinoma); 50 ug/mL)?
**A.** 0.67

**Q.** What about the “Fold change in viability AVG” value (A549 (lung carcinoma); 100 ug/mL) of the same compound?
**A.** 0.38

**Q.** And the viability at 1 µg/mL (A549 (lung carcinoma); Homo sapiens, A549, read-out: Average cell viability, A549, 1 ug/mL)?
**A.** 57%

**Q.** And the viability at 10 µg/mL (A549 (lung carcinoma); Homo sapiens, A549, read-out: Average cell viability, A549, 10 ug/mL)?
**A.** 55%

**Q.** And the viability at 50 µg/mL (A549 (lung carcinoma); Homo sapiens, A549, read-out: Average cell viability, A549, 50 ug/mL)?
**A.** 57%

**Q.** What about the viability at 100 µg/mL (A549 (lung carcinoma); Homo sapiens, A549, read-out: Average cell viability, A549, 100 ug/mL) of the same compound?
**A.** 32%
